Legend:
KHK = biological target: T1, KHK (Rattus norvegicus, UniProt Q02974); experiment: Oral Fructose Tolerance Test (OFTT) in male Sprague Dawley rats; format: in vivo; conditions: 100 mg/kg oral; fructose bolus 2 g/kg 1 hour after compound; blood at 0.5, 1, 2 and 3 hours post challenge; FIG. 1
T1 construct: from tissue; host or cells: whole animal, male Sprague Dawley rats (in vivo)
T1 sequence (Q02974 1-298): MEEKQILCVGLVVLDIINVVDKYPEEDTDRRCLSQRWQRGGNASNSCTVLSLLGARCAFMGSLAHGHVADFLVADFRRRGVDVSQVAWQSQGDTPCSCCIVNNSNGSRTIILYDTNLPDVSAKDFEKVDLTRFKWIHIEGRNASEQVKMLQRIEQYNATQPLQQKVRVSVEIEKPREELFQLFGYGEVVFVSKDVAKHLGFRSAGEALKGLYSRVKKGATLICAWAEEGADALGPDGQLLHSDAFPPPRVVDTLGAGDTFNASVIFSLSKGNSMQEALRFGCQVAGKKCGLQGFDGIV
Experimental: FIG. 1: Graph showing the change in fructose levels from baseline in the control and Example 2 and 6 treated animals in the OFTT study.
The animals were fasted overnight, basal blood samples collected and a 100 mg/kg dose was orally administered of compounds example 2 or example 6. A fructose bolus (2 g/kg) was then given 1 hour after test compound administration and blood samples collected at 0.5, 1, 2 and 3 hours post fructose challenge. All the blood samples were centrifuged immediately and the separated plasma samples were stored at appropriate temperature for the fructose estimation. Plasma fructose concentration was measured by commercially available EnzyChrome fructose assay kit.

[1] = biological target: T2, Human Ketohexokinase (KHK-A) (Homo sapiens, UniProt P50053); experiment: Transcreener Kinase ADP2 FP assay, inhibition of human KHK-A; format: biochemical; conditions: recombinant human KHK-A 17.5 nM, 0.3 mM ATP, 7 mM fructose, 30 min pre-incubation, 60 min at 30° C.
T2 construct: Recombinant Human Ketohexokinase, Met1Val298, with C terminal 6His tag; 6His (C); purchased R&D Systems 8177-HK
T2 sequence (P50053 1-298 isoform P50053-2): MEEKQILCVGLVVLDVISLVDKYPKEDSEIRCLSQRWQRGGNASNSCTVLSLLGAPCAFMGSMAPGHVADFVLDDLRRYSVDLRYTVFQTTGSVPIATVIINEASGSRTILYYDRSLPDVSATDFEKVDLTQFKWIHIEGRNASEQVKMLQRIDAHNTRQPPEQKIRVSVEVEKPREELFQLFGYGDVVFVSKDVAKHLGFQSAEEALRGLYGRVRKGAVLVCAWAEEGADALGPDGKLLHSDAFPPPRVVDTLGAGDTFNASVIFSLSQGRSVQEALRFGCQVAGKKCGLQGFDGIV
Experimental: The following materials and methods were used, • Enzyme description and source: Recombinant Human Ketohexokinase, Met1Val298, with C terminal 6His tag (R&D Systems, 8177-HK). • Reagents: 200 μM ATP and 100 mM D-(−)-Fructose (Sigma F0127) as substrates. • Enzyme reaction buffer: 25 mM HEPES, 300 mM KCl, 10 mM MgCl2, 10 mM CaCl2, pH 7.0. • Control compound: KHK Inhibitor (Millipore-Sigma 420640) See Maryanoff, B. E., et al. 2011. ACS Med. Chem. Lett. 2, 538. • Assay: Transcreener Kinase ADP2 FP assay as described: https://www.bellbrooklabs.com/products/transcreener-hts-assays/kinase-assays/ • Assay parameters: 12-point dose response (n=2), 3-fold serial dilution, starting at 100 μM
KHK-A was added to the tested compounds (from 10 mM stock solution in 25 mM Tris pH 7.4), to a total volume 5 μl, and pre-incubated for 30 minutes at rt to ensure E*I complex formation. The reaction was then initiated by addition of an equal volume (5 μl) containing ATP and Fructose to give a resulting mix of 17.5 nM KHK-A, 0.3 mM ATP, 7 mM Fructose, 25 mM Tris (pH 7.4), 10 mM MgCl2, 10 mM CaCl2 and 50 mM KCl. Following 60 min at 30° C., reactions were quenched with 10 μl of stop/detect mix (40 mM HEPES (pH 7.5), 80 mM EDTA, 0,04% Brij-35, 8 nM ADP tracer and optimal concentration of ADP2 antibody), The plates were read on a PHERAstar PLUS after 1-hour room temperature equilibration. […]

IC50 [1] [nM] | SMILES | change in fructose levels from baseline (plasma fructose) versus the control group (KHK)
740 | C[C@H]1CCN1c1nc(N2C[C@@H]3[C@H](C2)[C@H]3CS(=O)O)cc(C(F)(F)F)n1 [Example 2, sodium((1R,5S,6S)-3-(2-((S)-2-methylazetidin-1-yl)-6-(trifluoromethyl)pyrimidin-4-yl)-3-azabicyclo[3.1.0]hexan-6-yl)methanesulfinate] | increase of fructose plasma levels
78 | Cc1c(N2C[C@@H]3[C@H](C2)[C@H]3CS(=O)O)nc(N2CC[C@@H]2C)nc1C(F)(F)F [Example 6, sodium((1R,5S,6S)-3-(5-methyl-2-((S)-2-methylazetidin-1-yl)-6-(trifluoromethyl)pyrimidin-4-yl)-3-azabicyclo[3.1.0]hexan-6-yl)methanesulfinate] | increase of fructose plasma levels
